Among the data in patent publication US9255101B2 (BIOPROJECT, priority 2012, dated 2016) are IC50 and Ki values, retold here.

pIC50, pKi: −log10 of the molar value. Structures can show the parent of a compound that is named as a salt.
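For IC50 in this document: membranes from SH-SY5Y cells with stable human H4 receptor expression, incubated with GDP 10 µM, radioactivity retained on filters counted by liquid scintillation.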
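For Ki in this document: radioligand displacement of a [3H]-labelled ligand from membranes of CHO cells stably expressing human H4 receptor, bound radioactivity counted on filters by liquid scintillation.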

One assay deals with T1, human H4 receptor (Homo sapiens, UniProt Q9H3N8). The experiment in a line: biochemical.
T1 sequence (Q9H3N8 whole entry): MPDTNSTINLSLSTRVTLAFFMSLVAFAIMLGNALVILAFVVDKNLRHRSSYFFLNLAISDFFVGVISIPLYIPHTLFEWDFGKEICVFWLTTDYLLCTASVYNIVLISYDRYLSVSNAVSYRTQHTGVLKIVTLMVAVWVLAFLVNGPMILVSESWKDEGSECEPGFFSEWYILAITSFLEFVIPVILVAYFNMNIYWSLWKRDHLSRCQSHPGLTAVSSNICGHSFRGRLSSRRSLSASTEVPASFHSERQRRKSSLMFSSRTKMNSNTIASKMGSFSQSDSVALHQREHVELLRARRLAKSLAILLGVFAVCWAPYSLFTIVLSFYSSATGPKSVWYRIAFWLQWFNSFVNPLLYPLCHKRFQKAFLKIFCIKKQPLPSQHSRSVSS
For `CN1CCC(OC2c3ccccc3CCn3cc(-c4ccccc4Cl)nc32)CC1` (single isomer, unassigned) [Example 54B, 2-(2-chlorophenyl)-4-(1-methylpiperidin-4-yloxy)-9,10-dihydro-4H-3,10a-diaza-benzo[f]azulene], the pIC50 (commonly the negative decadic logarithm of the IC50, by convention in mol/L) is greater than 7.52.

As to `Cc1c(-c2ccccc2)nc2n1CCc1ccccc1C2OC1CCN(C)CC1` (single isomer, unassigned) [Example 135B, 1-methyl-4-(1-methyl-piperidin-4-yloxy)-2-phenyl-9,10-dihydro-4H-3,10a-diaza-benzo[f]azulene], the pIC50 was greater than 7.52.

`Cc1ccc(-c2cn3c(n2)C(OC2CCN(C)CC2)c2ccccc2CC3)cc1` (stereo not drawn) [Example 5, 4-(1-methylpiperidin-4-yloxy)-2-p-tolyl-9,10-dihydro-4H-3,10a-diaza-benzo[f]azulene] showed a pIC50 greater than 6.52.

As to `Cc1cccc(-c2cn3c(n2)C(OC2CCN(C)CC2)c2ccccc2CC3)c1` (stereo not drawn) [Example 6, 4-(1-methyl-piperidin-4-yloxy)-2-m-tolyl-9,10-dihydro-4H-3,10a-diaza-benzo[f]azulene], the negative-log IC50 (pIC50) is greater than 6.52.

Turning to `CC(=O)c1ccc(-c2cn3c(n2)C(OC2CCN(C)CC2)c2ccccc2CC3)cc1` (stereo not drawn) [Example 11, 1-{4-[4-(1-methylpiperidin-4-yloxy)-9,10-dihydro-4H-3,10a-diaza-benzo[f]azulen-2-yl]-phenyl}ethanone], the pIC50 was greater than 6.52.

Another assay has as its target T1, human H4 receptor. Put plainly: biochemical. This is another data set of the same source.
Consider `CN1CCC(OC2c3ccccc3CCn3cc(-c4ccccc4Cl)nc32)CC1` (single isomer, unassigned) [Example 54B, 2-(2-chlorophenyl)-4-(1-methylpiperidin-4-yloxy)-9,10-dihydro-4H-3,10a-diaza-benzo[f]azulene], for which the pKi (in general, −log10 of the Ki, conventionally taken in molar units) was greater than 6.52.

Compound `Cc1c(-c2ccccc2)nc2n1CCc1ccccc1C2OC1CCN(C)CC1` (single isomer, unassigned) [Example 135B, 1-methyl-4-(1-methyl-piperidin-4-yloxy)-2-phenyl-9,10-dihydro-4H-3,10a-diaza-benzo[f]azulene] had a pKi greater than 7.52.

Regarding `Cc1ccc(-c2cn3c(n2)C(OC2CCN(C)CC2)c2ccccc2CC3)cc1` (stereo not drawn) [Example 5, 4-(1-methylpiperidin-4-yloxy)-2-p-tolyl-9,10-dihydro-4H-3,10a-diaza-benzo[f]azulene], the pKi was greater than 7.52.

In turn, `Cc1cccc(-c2cn3c(n2)C(OC2CCN(C)CC2)c2ccccc2CC3)c1` (stereo not drawn) [Example 6, 4-(1-methyl-piperidin-4-yloxy)-2-m-tolyl-9,10-dihydro-4H-3,10a-diaza-benzo[f]azulene] gave a pKi greater than 6.52.

As to `CC(=O)c1ccc(-c2cn3c(n2)C(OC2CCN(C)CC2)c2ccccc2CC3)cc1` (stereo not drawn) [Example 11, 1-{4-[4-(1-methylpiperidin-4-yloxy)-9,10-dihydro-4H-3,10a-diaza-benzo[f]azulen-2-yl]-phenyl}ethanone], the pKi was greater than 7.52.

`Cc1c(-c2ccc(NC(=O)NC(C)(C)C)cc2)nc2n1CCc1ccccc1C2OC1CCN(C)CC1` (stereo not drawn) [Example 209, 1-tertbutyl-3-{4-[1-methyl-4-(1-methylpiperidin-4-yloxy)-9,10-dihydro-4H-3,10a-diaza-benzo[f]azulen-2-yl]-phenyl}-urea] showed a pKi greater than 7.52.

The compound `Cc1c(C(O)C(C)C)nc2n1CCc1ccccc1C2OC1CCN(C)CC1` (stereo not drawn) [Example 210, 2-methyl-1-[1-methyl-4-(1-methylpiperidin-4-yloxy)-9,10-dihydro-4H-3,10a-diaza-benzo[f]azulen-2-yl]-propan-1-ol, oxalate] had a pKi greater than 6.00.

In turn, `Cc1c(-c2ccc(SCCNC(=N)N)cc2)nc2n1CCc1ccccc1C2OC1CCN(C)CC1` (stereo not drawn) [Example 211, N-(2-{4-[1-methyl-4-(1-methylpiperidin-4-yloxy)-9,10-dihydro-4H-3,10a-diaza-benzo[f]azulen-2-yl]-phenylsulfanyl}-ethyl)-guanidine] showed a pKi greater than 7.52.

Turning to `CN1CCC(OC2c3ccccc3CCn3cc(-c4ccc(C(=O)NCCO)cc4)nc32)CC1` (stereo not drawn) [Example 212, N-(2-hydroxyethyl)-4-[4-(1-methylpiperidin-4-yloxy)-9,10-dihydro-4H-3,10a-diaza-benzo[f]azulen-2-yl]benzamide], the negative logarithm of the Ki (pKi) is greater than 6.00.

`Cc1c(-c2ccc(NC(=O)NC34CC5CC(CC(C5)C3)C4)cc2)nc2n1CCc1ccccc1C2OC1CCN(C)CC1` (stereo not drawn) [Example 213, 1-adamantan-1-yl-3-{4-[1-methyl-4-(1-methylpiperidin-4-yloxy)-9,10-dihydro-4H-3,10a-diaza-benzo[f]azulen-2-yl]-phenyl}-urea]: the pKi is greater than 7.52.

The compound `CN1CCC(OC2c3ccccc3CCn3cc(-c4ccc(C(=O)N5CCC(=O)CC5)cc4)nc32)CC1` (stereo not drawn) [Example 215, 1-{4-[4-(1-methylpiperidin-4-yloxy)-9,10-dihydro-4H-3,10a-diaza-benzo[f]azulen-2-yl]-benzoyl}-piperidin-4-one] showed a pKi greater than 6.52.

The compound `Cc1c(-c2ccc(C(=O)NC3CCC(O)CC3)cc2)nc2n1CCc1ccccc1C2OC1CCN(C)CC1` (stereo not drawn) [Example 216, N-(4-hydroxycyclohexyl)-4-[1-methyl-4-(1-methylpiperidin-4-yloxy)-9,10-dihydro-4H-3,10a-diaza-benzo[f]azulen-2-yl]-benzamide] had a pKi greater than 6.52.

`Cc1c(-c2ccc(C(=O)NCCO)cc2)nc2n1CCc1ccccc1C2OC1CCN(C)CC1` (stereo not drawn) [Example 217, N-(2-hydroxyethyl)-4-[1-methyl-4-(1-methylpiperidin-4-yloxy)-9,10-dihydro-4H-3,10a-diaza-benzo[f]azulen-2-yl]-benzamide]: the pKi was greater than 6.52.

In turn, `Cc1c(-c2ccc(C(=O)N3CCC(=O)CC3)cc2)nc2n1CCc1ccccc1C2OC1CCN(C)CC1` (stereo not drawn) [Example 218, 1-{4-[1-methyl-4-(1-methylpiperidin-4-yloxy)-9,10-dihydro-4H-3,10a-diaza-benzo[f]azulen-2-yl]-benzoyl}-piperidin-4-one] had a pKi greater than 6.52.

Regarding `Cc1c(-c2ccc(C(=O)N3CCC(O)CC3)cc2)nc2n1CCc1ccccc1C2OC1CCN(C)CC1` (stereo not drawn) [Example 220, (4-hydroxypiperidin-1-yl)-{4-[1-methyl-4-(1-methylpiperidin-4-yloxy)-9,10-dihydro-4H-3,10a-diaza-benzo[f]azulen-2-yl]-phenyl}-methanone], the pKi was greater than 6.52.

With `Cc1c(-c2ccc(CCNC(=O)OC(C)(C)C)cc2)nc2n1CCc1ccccc1C2OC1CCN(C)CC1` (stereo not drawn) [Example 223, (2-{4-[1-methyl-4-(1-methylpiperidin-4-yloxy)-9,10-dihydro-4H-3,10a-diaza-benzo[f]azulen-2-yl]-phenyl}-ethyl)-carbamic acid tert-butyl ester], the pKi is greater than 7.52.

Compound `Cc1c(C#CCCO)nc2n1CCc1ccccc1C2OC1CCN(C)CC1` (stereo not drawn) [Example 227, 4-[1-methyl-4-(1-methylpiperidin-4-yloxy)-9,10-dihydro-4H-3,10a-diaza-benzo[f]azulen-2-yl]-but-3-yn-1-ol] gave a pKi greater than 6.52.

In turn, `Cc1c(CCC(C)(C)C)nc2n1CCc1ccccc1C2OC1CCN(C)CC1` (stereo not drawn) [Example 229, 2-(3,3-dimethyl-butyl)-1-methyl-4-(1-methylpiperidin-4-yloxy)-9,10-dihydro-4H-3,10a-diaza-benzo[f]azulene] had a pKi greater than 7.52.

Take `CN1CCC(OC2c3ccccc3CCn3c2nc(-c2ccccc2)c3C#N)CC1` (stereo not drawn) [Example 235, 4-(1-methylpiperidin-4-yloxy)-2-phenyl-9,10-dihydro-4H-3,10a-diaza-benzo[f]azulene-1-carbonitrile]: the pKi is greater than 7.52.

With `CCCc1nc2n(c1-c1ccccc1)CCc1ccccc1C2OC1CCN(C)CC1` (stereo not drawn) [Example 246, 4-(1-methyl-piperidin-4-yloxy)-1-phenyl-2-propyl-9,10-dihydro-4H-3,10a-diaza-benzo[f]azulene], the pKi was greater than 6.52.

In turn, `Cc1c(-c2ccncc2)nc2n1CCc1ccccc1C2OC1CCN(C)CC1` (stereo not drawn) [Example 250, 1-methyl-4-(1-methylpiperidin-4-yloxy)-2-pyridin-4-yl-9,10-dihydro-4H-3,10a-diaza-benzo[f]azulene] had a pKi greater than 6.00.

For `Cc1c(-c2ccccn2)nc2n1CCc1ccccc1C2OC1CCN(C)CC1` (stereo not drawn) [Example 251, 1-methyl-4-(1-methylpiperidin-4-yloxy)-2-pyridin-2-yl-9,10-dihydro-4H-3,10a-diaza-benzo[f]azulene], the pKi is greater than 6.52.

In turn, `COC(=O)c1c(-c2ccccc2)nc2n1CCc1ccccc1C2OC1CCN(C)CC1` (stereo not drawn) [Example 256, 4-(1-methylpiperidin-4-yloxy)-2-phenyl-9,10-dihydro-4H-3,10a-diaza-benzo[f]azulene-1-carboxylic acid methyl ester] had a pKi greater than 6.52.

`C=C(C)Cc1nc2n(c1C)CCc1ccccc1C2OC1CCN(C)CC1` (stereo not drawn) [Example 260, 1-methyl-2-(2-methylallyl)-4-(1-methylpiperidin-4-yloxy)-9,10-dihydro-4H-3,10a-diaza-benzo[f]azulene]: the pKi is greater than 6.52.

`CN1CCC(OC2c3ccccc3CCn3c2nc(Cc2ccccc2)c3C#N)CC1` (stereo not drawn) [Example 263, 2-benzyl-4-(1-methylpiperidin-4-yloxy)-9,10-dihydro-4H-3,10a-diaza-benzo[f]azulene-1-carbonitrile] gave a pKi greater than 6.52.

In turn, `CN(C)CCOC1c2ccccc2CCn2c1nc(I)c2I` (stereo not drawn) [Example 264, [2-(1,2-diiodo-9,10-dihydro-4H-3,10a-diaza-benzo[f]azulen-4-yloxy)-ethyl]-dimethyl-amine] gave a pKi greater than 6.00.

The compound `Ic1nc2n(c1I)CCc1ccccc1C2OCCN1CCCCC1` (stereo not drawn) [Example 265, 1,2-diiodo-4-(2-piperidin-1-yl-ethoxy)-9,10-dihydro-4H-3,10a-diaza-benzo[f]azulene] gave a pKi greater than 6.00.

Regarding `C=C(C)Cc1nc2n(c1C(N)=O)CCc1ccccc1C2OC1CCN(C)CC1` (stereo not drawn) [Example 266, 2-(2-methylallyl)-4-(1-methylpiperidin-4-yloxy)-9,10-dihydro-4H-3,10a-diaza-benzo[f]azulene-1-carboxylic acid amide], the pKi was greater than 6.52.

For the compound `CN1CCC(OC2c3ccccc3CCn3c2nc(I)c3I)C1` (stereo not drawn) [Example 268, 1,2-diiodo-4-(1-methylpyrrolidin-3-yloxy)-9,10-dihydro-4H-3,10a-diaza-benzo[f]azulene], the pKi is greater than 6.52.

Consider `CN1C2CCC1CC(OC1c3ccccc3CCn3c1nc(I)c3I)C2` (stereo not drawn) [Example 269, 1,2-diiodo-4-(8-methyl-8-aza-bicyclo[3.2.1]oct-3-yloxy)-9,10-dihydro-4H-3,10a-diaza-benzo[f]azulene], for which the pKi is greater than 6.00.

`CN(C)CCCOC1c2ccccc2CCn2c1nc(I)c2I` (stereo not drawn) [Example 270, [3-(1,2-diiodo-9,10-dihydro-4H-3,10a-diaza-benzo[f]azulen-4-yloxy)-propyl]-dimethyl-amine]: the pKi is greater than 6.00.

As for `Ic1nc2n(c1I)CCc1ccccc1C2OC1CN2CCC1CC2` (stereo not drawn) [Example 271, 4-(1-azabicyclo[2.2.2]oct-3-yloxy)-1,2-diiodo-9,10-dihydro-4H-3,10a-diaza-benzo[f]azulene oxalate], the pKi is greater than 6.00.

Consider `CN1CCC(OC2c3ccccc3CCn3c2nc(-c2ccccc2Cl)c3C#N)CC1` (stereo not drawn) [Example 272, 2-(2-chlorophenyl)-4-(1-methyl-piperidin-4-yloxy)-9,10-dihydro-4H-3,10a-diaza-benzo[f]azulene-1-carbonitrile oxalate], for which the pKi was greater than 7.52.

Take `CN1CCC(OC2c3ccccc3CCn3c2nc(-c2ccccc2Cl)c3C(N)=O)CC1` (stereo not drawn) [Example 273, 2-(2-chlorophenyl)-4-(1-methylpiperidin-4-yloxy)-9,10-dihydro-4H-3,10a-diaza-benzo[f]azulene-1-carboxylic acid amide]: the pKi was greater than 6.52.
